Measured values reported in patent publication US10865191B2, “Heterocyclic compounds useful as modulators of TNF alpha” (BRISTOL-MYERS SQUIBB COMPANY, priority 2015, dated 2020).
Like-named read-outs stand apart in the source and are kept apart here.

Molecular target: TNFα (Homo sapiens, UniProt P01375)
Assay: TNF induced HEK-Blue assay (NF-kB-driven secreted alkaline phosphatase reporter)
Format: cell-based
Settings: TNFα 0.5 ng/mL, HEK-Blue-CD40L cells, 18 h
Outline: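 HEK-Blue-CD40L cells (NF-kB-driven SEAP reporter), 20,000/well, added after 30 min pre-incubation of compound (0.004–25 μM final) with TNFα 0.5 ng/mL final at 37 °C; 18 h incubation. SEAP read with QUANTI-Blue at 620 nm; IC50 from 4-parameter logistic fit, normalized to unstimulated and stimulated DMSO controls.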

[1] = read-out: TNF induced HEK-Blue assay IC50 value

Chain of TNFα (P01375 77-233 limits assumed): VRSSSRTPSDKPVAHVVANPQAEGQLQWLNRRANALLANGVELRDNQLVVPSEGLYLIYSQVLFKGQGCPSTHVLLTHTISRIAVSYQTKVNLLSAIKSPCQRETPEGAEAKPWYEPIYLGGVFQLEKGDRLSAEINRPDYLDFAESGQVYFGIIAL

SMILES | IC50 [1] | IC50 (TNF induced HEK-Blue assay IC50 value)
CC(Nc1c(Cl)cnc2cc(F)c(-c3cnc(N4CCN(C(=O)[C@H](N)CO)CC4)nc3)cc12)c1ccccc1F (single isomer, unassigned) [Example 606] | < 1000 nM | 
Cc1nc2ccccc2c(N[C@H](C)c2cc(-c3cccnc3)ccc2F)c1Cl [Example 531, (R)-3-chloro-N-(1-(2-fluoro-5-(pyridin-3-yl)phenyl)ethyl)-2-methylquinolin-4-amine] | < 1000 nM | 
Cc1nc2ccc(-c3cnc(C(C)(C)O)nc3)cc2c(N[C@@H](c2cc(C#N)ccc2F)C(F)F)c1Cl [Example 380, (S)-3-(1-((3-chloro-6-(2-(2-hydroxypropan-2-yl)pyrimidin-5-yl)-2-methylquinolin-4-yl)amino)-2,2-difluoroethyl)-4-fluorobenzonitrile] | < 1000 nM | 
CC(Nc1c(Cl)cnc2ccc(-c3cnc(C(C)(C)O)nc3)cc12)[C@H]1CCCN(CC(O)CO)C1 (stereo partly drawn) [Example 106, 3-((S)-3-((S)-1-((3-chloro-6-(2-(2-hydroxypropan-2-yl)pyrimidin-5-yl)quinolin-4-yl)amino)ethyl)piperidin-1-yl)propane-1,2-diol] | 1000 to 10000 nM | 
CCCC(C)C(N)c1c(Cl)c(C)nc2ccc(-c3cnc(C(C)(C)O)nc3)cc12 (single isomer, unassigned) [Example 357, 2-(5-(4-(1-amino-2-methylpentyl)-3-chloro-2-methylquinolin-6-yl)pyrimidin-2-yl)propan-2-ol] | 1000 to 10000 nM | 
C[C@@H](Nc1c(Cl)cnc2ccc(-c3cnc(C(C)(C)O)nc3)cc12)c1cc(C(O)CO)ccc1F (mixture of isomers) [Example 398, 1-(3-((R)-1-((3-chloro-6-(2-(2-hydroxypropan-2-yl)pyrimidin-5-yl)quinolin-4-yl)amino)ethyl)-4-fluorophenyl)ethane-1,2-diol] | < 1000 nM | 
Cc1ccc(C)c(Nc2c(Cl)c(C)nc3ccc(-c4ccc(CN5CCN(C(=O)OC(C)(C)C)CC5)cc4)cc23)c1 [Example 6, tert-butyl 4-(4-(3-chloro-4-((2,5-dimethylphenyl)amino)-2-methylquinolin-6-yl)benzyl)piperazine-1-carboxylate] | 1000 to 10000 nM | 
O=C(O)CC1CCN(c2ncc(-c3ccc4ncc(Cl)c(N[C@@H](c5ccccc5F)C(F)F)c4c3)cn2)CC1 [Example 78, (S)-2-(1-(5-(3-chloro-4-((2,2-difluoro-1-(2-fluorophenyl)ethyl)amino)quinolin-6-yl)pyrimidin-2-yl)piperidin-4-yl)acetic acid] | < 1000 nM | 
CC(Nc1c(Cl)cnc2c(F)cc(-c3cnc(C(C)(C)O)nc3)cc12)c1cc(Br)ccc1F (single isomer, unassigned) [Example 612, 2-(5-(4-((1-(5-bromo-2-fluorophenyl)ethyl)amino)-3-chloro-8-fluoroquinolin-6-yl)pyrimidin-2-yl)propan-2-ol] | < 1000 nM | 
C=Cc1ccc(F)c([C@@H](C)Nc2c(Cl)c(C)nc3cc(F)c(-c4cnc(C(C)(C)O)nc4)nc23)c1 [Example 572, (R)-2-(5-(7-chloro-3-fluoro-8-((1-(2-fluoro-5-vinylphenyl)ethyl)amino)-6-methyl-1,5-naphthyridin-2-yl)pyrimidin-2-yl)propan-2-ol] | 1000 to 10000 nM | 
C[C@@H](Nc1c(Cl)cnc2ccccc12)c1cc(-c2cncn2C)ccc1F [Example 524, (R)-3-chloro-N-(1-(2-fluoro-5-(1-methyl-1H-imidazol-5-yl)phenyl)ethyl)quinolin-4-amine] | < 1000 nM | 
Cc1nc2ccc(-c3cnc(C(C)(C)O)nc3)cc2c(N[C@H](c2cc(C#N)ccc2F)C(F)F)c1Cl [Example 378, (R)-3-(1-((3-chloro-6-(2-(2-hydroxypropan-2-yl)pyrimidin-5-yl)-2-methylquinolin-4-yl)amino)-2,2-difluoroethyl)-4-fluorobenzonitrile] | 10000 to 25000 nM | 
CC(Nc1c(Cl)cnc2cc(F)c(-c3cnc(C(O)CN4CCOCC4)cn3)cc12)c1ccccc1F (stereo not shown) [Example 276, 1-(5-(3-chloro-7-fluoro-4-((1-(2-fluorophenyl)ethyl)amino)quinolin-6-yl)pyrazin-2-yl)-2-morpholinoethan-1-ol] | 1000 to 10000 nM | 
Cc1nc2ccc(-c3cnc(C(C)(C)O)nc3)cc2c(N[C@H](C)c2cc(C(=O)O)ccc2F)c1Cl [Example 407, (R)-3-(1-((3-chloro-6-(2-(2-hydroxypropan-2-yl)pyrimidin-5-yl)-2-methylquinolin-4-yl)amino)ethyl)-4-fluorobenzoic acid] | 10000 to 25000 nM | 
Cc1nc2cc(F)c(-c3cnc(C(C)(C)O)nc3)nc2c(NC(c2ccccc2)C(F)F)c1Cl (racemic) [Example 214, 2-(5-(7-chloro-8-((2,2-difluoro-1-phenylethyl)amino)-3-fluoro-6-methyl-1,5-naphthyridin-2-yl)pyrimidin-2-yl)propan-2-ol] | < 1000 nM | 
Cc1nc2cc(F)c(-c3cnc(C(C)(C)O)nc3)cc2c(N[C@H](C)c2cc(CCC(N)=O)ccc2F)c1Cl [Example 445, (R)-3-(3-(1-((3-chloro-7-fluoro-6-(2-(2-hydroxypropan-2-yl)pyrimidin-5-yl)-2-methylquinolin-4-yl)amino)ethyl)-4-fluorophenyl)propanamide] | < 1000 nM | 
COc1ncc(-c2ccc(F)c([C@@H](C)Nc3c(Cl)cnc4ccccc34)c2)cc1N [Example 521, (R)—N-(1-(5-(5-amino-6-methoxypyridin-3-yl)-2-fluorophenyl)ethyl)-3-chloroquinolin-4-amine] | < 1000 nM | 
CNC(=O)c1ccc(-c2ccc3nc(C)c(F)c(Nc4cc(C)ccc4C)c3c2)cn1 [Example 186, 5-(4-((2,5-dimethylphenyl)amino)-3-fluoro-2-methylquinolin-6-yl)-N-methylpicolinamide] | 10000 to 25000 nM | 
C=Cc1cccc([C@@H](C)Nc2c(Cl)cnc3cc(F)c(-c4cnc(C(C)(C)O)nc4)nc23)c1 [Example 574, (R)-2-(5-(7-chloro-3-fluoro-8-((1-(3-vinylphenyl)ethyl)amino)-1,5-naphthyridin-2-yl)pyrimidin-2-yl)propan-2-ol] | < 1000 nM | 

The remaining lines, values ahead:

IC50 [1] | IC50 (TNF induced HEK-Blue assay IC50 value) | SMILES
1000 to 10000 nM |  | CC(=O)NC1CCC(O)(c2ncc(-c3ccc4ncc(Cl)c(N[C@H](C)c5ccccc5F)c4c3)cn2)CC1 (stereo partly drawn) [Example 131, (R)—N-(4-(5-(3-chloro-4-((1-(2-fluorophenyl)ethyl)amino)quinolin-6-yl)pyrimidin-2-yl)-4-hydroxycyclohexyl)acetamide]
< 1000 nM |  | C=Cc1ccc(F)c([C@@H](Nc2c(Cl)cnc3cc(F)c(-c4cnc(C(C)(C)O)nc4)nc23)C(F)F)c1 [Example 215, (R)-2-(5-(7-chloro-8-((2,2-difluoro-1-(2-fluoro-5-vinylphenyl)ethyl)amino)-3-fluoro-1,5-naphthyridin-2-yl)pyrimidin-2-yl)propan-2-ol]
< 1000 nM |  | Cc1ccc(C)c(Nc2c(Cl)c(N)nc3ccc(-c4cnc(NCC(C)(C)O)nc4)cc23)c1 [Example 69, 1-((5-(2-amino-3-chloro-4-((2,5-dimethylphenyl)amino)quinolin-6-yl)pyrimidin-2-yl)amino)-2-methylpropan-2-ol]
< 1000 nM |  | C[C@@H](Nc1c(Cl)cnc2cc(F)c(-c3cnc(C(C)(C)O)nc3)nc12)c1cccc(C(O)CO)c1 (stereo partly drawn) [Example 573, 1-(3-((R)-1-((3-chloro-7-fluoro-6-(2-(2-hydroxypropan-2-yl)pyrimidin-5-yl)-1,5-naphthyridin-4-yl)amino)ethyl)phenyl)ethane-1,2-diol]
< 1000 nM |  | C[C@@H](Nc1c(Cl)cnc2ccc(-c3cnc(C(C)(C)O)nc3)cc12)c1cc(-c2cccnc2)ccc1F [Example 553, (R)-2-(5-(3-chloro-4-((1-(2-fluoro-5-(pyridin-3-yl)phenyl)ethyl)amino)quinolin-6-yl)pyrimidin-2-yl)propan-2-ol]
< 1000 nM |  | C[C@@H](Nc1c(Cl)cnc2ccc(-c3cnc(C(C)(C)O)nc3)cc12)c1cc(CC(O)CO)ccc1F (mixture of isomers) [Example 399, 3-(3-((R)-1-((3-chloro-6-(2-(2-hydroxypropan-2-yl)pyrimidin-5-yl)quinolin-4-yl)amino)ethyl)-4-fluorophenyl)propane-1,2-diol]
< 1000 nM |  | C[C@@H](Nc1c(Cl)cnc2ccc(-c3ccc(C4(N)CC(O)C4)cc3)cc12)c1ccccc1F (mixture of isomers) [Example 119, (R)-3-amino-3-(4-(3-chloro-4-((1-(2-fluorophenyl)ethyl)amino)quinolin-6-yl)phenyl)cyclobutan-1-ol]
1000 to 10000 nM |  | Cc1ccc(C)c(C(C)Nc2c(Cl)cnc3ccc(-c4cnc(C(C)(C)O)nc4)cc23)c1 (racemic) [Example 149, 2-(5-(3-chloro-4-((1-(2,5-dimethylphenyl)ethyl)amino)quinolin-6-yl)pyrimidin-2-yl)propan-2-ol]
 | < 1000 nM | C[C@@H](Nc1c(Cl)cnc2ccc(-c3cnc(C(C)(C)O)nc3)cc12)c1ccccc1 [Example 154, (R)-2-(5-(3-chloro-4-((1-phenylethyl)amino)quinolin-6-yl)pyrimidin-2-yl)propan-2-ol]
< 1000 nM |  | Cc1nc2ccc(-c3cnc(C(C)(C)O)nc3)cc2c(N[C@H](C)c2cc(-n3cccn3)ccc2F)c1Cl [Example 365, (R)-2-(5-(3-chloro-4-((1-(2-fluoro-5-(1H-pyrazol-1-yl)phenyl)ethyl)amino)-2-methylquinolin-6-yl)pyrimidin-2-yl)propan-2-ol]
1000 to 10000 nM |  | Cc1ccc(C)c(Nc2c(Cl)c(C)nc3ccc(-c4ccc(C(=O)NCCCCN)nc4)cc23)c1 [Example 65, N-(4-aminobutyl)-5-(3-chloro-4-((2,5-dimethylphenyl)amino)-2-methylquinolin-6-yl) picolinamide]
< 1000 nM |  | Cc1nc2ccc(-c3cnc(C(C)(C)O)nc3)cc2c(N[C@H](C)c2cc(C3=CCCC3)ccc2F)c1Cl [Example 333, (R)-2-(5-(3-chloro-4-((1-(5-(cyclopent-1-en-1-yl)-2-fluorophenyl)ethyl)amino)-2-methylquinolin-6-yl)pyrimidin-2-yl)propan-2-ol]
